What all share (assay type): cell-based
In assay [1] the test system is Wnt activity (Sp5-Luc reporter, TCF/LEF binding sites) in SW480 colon carcinoma cells. The experiment in a line: Screening assay for Wnt activity: Sp5-Luc reporter gene assay in stably transduced SW480 cells. The settings on record: Homo sapiens, overnight incubation. The text has this:
The screening assay for Wnt activity is described as follows. Reporter cell lines can be generated by stably transducing cancer cell lines (e.g., colon cancer) or primary cells (e.g., IEC-6 intestinal cells) with a lentiviral construct that includes a Wnt-responsive promoter driving expression of the firefly luciferase gene.
SW480 colon carcinoma cells were transduced with a lentiviral vector expressing luciferase with a human Sp5 promoter consisting of a sequence of eight TCF/LEF binding sites. SW480 cells stably expressing the Sp5-Luc reporter gene and a hygromycin resistance gene were selected by treatment with 150 μg/mL of hygromycin for 7 days. These stably transduced SW480 cells were expanded in cell culture and used for all further screening activities. Each compound was dissolved in DMSO as a 10 mM stock and used to prepare compound source plates. Serial dilution (1:3, 10-point dose-response curves starting from 10 μM) and compound transfer was performed using the ECHO 550 (Labcyte, Sunnyvale, Calif.) into 384-well white solid bottom assay plates (Greiner Bio-One) with appropriate DMSO backfill for a final DMSO concentration of 0.1%. For Sp5-Luc reporter gene assays, the cells were plated at 4,000 cells/well in 384-well plates with medium containing 1% fetal bovine serum and incubated overnight at 37° C. and 5% CO2. Following incubation, 20 μl of BrightGlo luminescence reagent (Promega) was added to each well of the 384-well assay plates. The plates were placed on an orbital shaker for 2 min and then luminescence was quantified using the Envision (Perkin Elmer) plate reader. Readings were normalized to DMSO only treated cells, and normalized activities were utilized for EC50 calculations using the dose-response log (inhibitor) vs. response-variable slope (four parameters) nonlinear regression feature available in GraphPad Prism 5.0 (or Dotmatics). For EC50 of >10 μM, the percent inhibition at 10 μM is provided.
(In a reporter assay the amount or activity of a reporter protein is the signal.)

Assay [2] concerns primary human fibroblasts derived from IPF patients (LL29 cells) treated with TGF-β1; α-smooth muscle actin (αSMA). The assay is described as follows: Inhibition of the fibrotic process: αSMA staining in TGF-β1 treated primary human fibroblasts from IPF patients (LL29 cells). The settings on record: Fibroblast, 96 h, TGF-β1 20 ng/mL, 4 days, % cells positive for αSMA. The source says: Representative compounds were screened using primary human fibroblasts (derived from IPF patients) treated with TGF-β1 to determine their ability to inhibit the fibrotic process.
Primary human fibroblasts derived from IPF patients (LL29 cells) [^1Xiaoqiu Liu, et. al., “Fibrotic Lung Fibroblasts Show Blunted Inhibition by cAMP Due to Deficient cAMP Response Element-Binding Protein Phosphorylation”, Journal of Pharmacology and Experimental Therapeutics (2005), 315(2), 678-687; ^2Watts, K. L., et. al., “RhoA signaling modulates cyclin D1 expression in human lung fibroblasts; implications for idiopathic pulmonary fibrosis”, Respiratory Research (2006), 7(1), 88] were obtained from American Type Culture Collection (ATCC) and expanded in F12 medium supplemented with 15% Fetal Bovine Serum and Penicillin/Streptomycin.
Each compound was dissolved in DMSO as a 10 mM stock and used to prepare compound source plates. Serial dilution (1:2, 11-point dose-response curves from 10 μM to 1.87 nM) and compound transfer was performed using the ECHO 550 (Labcyte, Sunnyvale, Calif.) into 384-well clear bottom assay plates (Greiner Bio-One) with appropriate DMSO backfill for a final DMSO concentration of 0.1%. LL29 cells are plated at 1,500 cells/well in 80 μL/well F12 medium supplemented with 1% Fetal Bovine Serum. One hour after addition of the cells, TGF-β1 (Peprotech; 20 ng/mL) was added to the plates to induce fibrosis (ref. 1 and 2 above). Wells treated with TGF-β1 and containing DMSO were used as controls. Cells were incubated at 37° C. and 5% CO2 for 4 days. Following incubation for 4 days, SYTOX green nucleic acid stain (Life Technologies [Thermo Fisher Scientific]) was added to the wells at a final concentration of 1 μM and incubated at room temperature for 30 min. Cells were then fixed using 4% formaldehyde (Electron Microscopy Sciences), washed 3 times with PBS followed by blocking and permeabilization using 3% Bovine Serum Albumin (BSA; Sigma) and 0.3% Triton X-100 (Sigma) in PBS. Cells were then stained with antibody specific to α-smooth muscle actin (αSMA; Abcam) (ref. 1 and 2 above) in 3% Bovine Serum Albumin (BSA; Sigma) and 0.3% Triton X-100 (Sigma) in PBS, and incubated overnight at 4° C. Cells were then washed 3 times with PBS, followed by incubation with Alexa Flor-647 conjugated secondary antibody (Life Technologies [Thermo Fisher Scientific]) and DAPI at room temperature for 1 hour. Cells were then washed 3 times with PBS and plates were sealed for imaging. αSMA staining was imaged by excitation at 630 nm and emission at 665 nm and quantified using the Compartmental Analysis program on the CellInsight CX5 (Thermo Scientific). Dead or apoptotic cells were excluded from analysis based on positive SYTOX green staining. % of total cells positive for αSMA were counted in each well and normalized to the average of 11 wells treated with TGF-β1 on the same plate using Dotmatics' Studies Software. The normalized averages (fold change over untreated) of 3 replicate wells for each compound concentration were used to create dose-responses curves and EC50 values were calculated using non-linear regression curve fit in the Dotmatics' Studies Software. For EC50 of >10 μM, the percent inhibition at 10 μM is provided.

Another assay deals with IL-6 (THP-1 cells). The assay is described as follows: Inhibition of IL-6 in LPS-stimulated THP-1 human monocyte cells (HTRF). The settings on record: inhibition of IL-6 in LPS-stimulated THP-1 cells, HTRF, 10-point dose-response starting from 10 μM. Here is the method:
Human monocyte cell line (THP-1 cells; Catalog # TIB-202, ATCC, Manassas, Va.) were cultured in Roswell Park Memorial Institute (RPMI) 1640 Medium (Catalog #21870-100, Buffalo, N.Y.) with 1% L-glutamine, 1% HEPES, 1% Sodium Pyruvate, 2% Sodium Bicarbonate supplemented with 100 units/mL penicillin, 50 μg/mL streptomycin, 2-mercaptoethanol (0.05 mM) [basal medium] and 10% fetal bovine serum (Catalog #16140089, Life Technologies, Carlsbad, Calif.) at 37° C. and 5% CO2.
THP-1 cells were cultured in basal media with 1% FBS for 24 hours before the start of the assay. Each compound was dissolved in DMSO as a 10 mM stock and used to prepare compound source plates. Serial dilution (1:3, 10-point dose-response curves starting from 10 μM) and compound transfer was performed using the ECHO 550 (Labcyte, Sunnyvale, Calif.) into 384-well white low volume assay plates (Greiner Bio-One) with appropriate DMSO backfill for a final DMSO concentration of 0.1%. THP-1 cells were plated at 5000 cells/well in the 384-well plates and incubated at 37° C. for 2 h. 500 ng/mL of LPS was added after 2 hours and cells were incubated for another 22 hours at 37° C. Plates were spun in a centrifuge for 1 minute at […] and a mixture of anti-IL6 XL665, and anti-IL6 Cryptate diluted in reconstitution buffer (Cisbio Inc.) was added to each well. Following incubation for 3 hrs at room temperature, Homogeneous Time-Resolved Fluorescence (HTRF) was measured using the Envision (Perkin Elmer) at 665 nm and […]. The ratio of fluorescence at 665 nm to 620 nm was used as a readout for IL6 quantification. All samples were processed in duplicate. Readings were normalized to DMSO treated cells and normalized activities were utilized for EC50 calculations using the dose-response log (inhibitor) vs. response-variable slope (four parameters) nonlinear regression feature available in GraphPad Prism 5.0 (or Dotmatics). For EC50 of >10 μM, the percent inhibition at 10 μM is provided.

Another assay has as its system SW480 colon cancer cells. The assay is described as follows: Cell viability assay (CellTiter-Blue) in SW480 colon cancer cells. The settings on record: Homo sapiens, 96 h, four days, CellTiter-Blue. Here is the method: Representative compounds were screened using the following assay procedure to assess the effect on cell viability as described below.
Each compound was dissolved in DMSO as a 10 mM stock and used to prepare compound source plates. Serial dilution (1:3, 8-point dose-response curves from 10 μM to 0.0045 μM) and compound transfer was performed using the ECHO 550 (Labcyte, Sunnyvale, Calif.) into 96-well clear bottom, black-walled plates (Corning-Costar).
Approximately 2×10^3 SW480 colon cancer cells were seeded into each well and allowed to incubate in the presence or absence of compound for four days at 37° C./5% CO2. Eight replicates of DMSO-treated cells served as controls and cells treated with compound were performed in duplicate.
After incubation, 20 μL of CellTiter-Blue (Promega) was added to each well allowed to incubate for approximately 3 hours. This reagent was a buffered solution which contains resazurin, metabolically active cells were able to reduce rezarurin (blue) into resorufin (pink) which was highly fluorescent. This measured fluorescence was used as a readout for cell viability.
After incubation, the plates were read at Ex 560 nm Em 590 nm (Cytation 3, BioTek). Dose-response curves were generated and EC50 concentration values were calculated using non-linear regression curve fit in the GraphPad Prism (San Diego, Calif.) or Dotmatics' Studies Software (Bishops Stortford, UK). For EC50 of >10 μM, the percent inhibition at 10 μM is provided.

One may read the EC50 as the concentration at which the effect is half-maximal. Read a low EC50 as higher potency in that assay. For `CCC(=O)Nc1cncc(-c2cc3c(-c4cc5c(-c6cccc(F)c6)cccc5[nH]4)n[nH]c3cn2)c1` [Compound 1, N-(5-(3-(4-(3-Fluorophenyl)-1H-indol-2-yl)-1H-pyrazolo[3,4-c]pyridin-5-yl)pyridin-3-yl)propionamide], the EC50 was found to be 570 nM in assay [1], 529 nM in assay [2], 2920 nM in the assay with IL-6 (THP-1 cells) and 4070 nM in the assay with SW480 colon cancer cells.

Regarding `CN(C)Cc1cncc(-c2cc3c(-c4cc5c(-c6cccc(F)c6)cccc5[nH]4)n[nH]c3cn2)c1` [Compound 13, 1-(5-(3-(4-(3-Fluorophenyl)-1H-indol-2-yl)-1H-pyrazolo[3,4-c]pyridin-5-yl)pyridin-3-yl)-N,N-dimethylmethanamine], the EC50 in assay [1] turned out to be 1350 nM; in assay [2], 2200 nM; in the assay with IL-6 (THP-1 cells), 7520 nM; with SW480 colon cancer cells, 4930 nM.

As to `CC(C)(C)CC(=O)Nc1cncc(-c2cc3c(-c4cc5c(-c6cccc(F)c6)cccc5[nH]4)n[nH]c3cn2)c1` [Compound 16, N-(5-(3-(4-(3-Fluorophenyl)-1H-indol-2-yl)-1H-pyrazolo[3,4-c]pyridin-5-yl)pyridin-3-yl)-3,3-dimethylbutanamide], the EC50 in assay [1] was found to be 1970 nM; in assay [2] it was 640 nM; in the assay on IL-6 (THP-1 cells), 1870 nM; in the assay on SW480 colon cancer cells it was 3920 nM.

Consider `Fc1cccc(-c2cccc3[nH]c(-c4n[nH]c5cnc(-c6cncc(CN7CCC(F)(F)C7)c6)cc45)cc23)c1` [Compound 26, 5-(5-((3,3-Difluoropyrrolidin-1-yl)methyl)pyridin-3-yl)-3-(4-(3-fluorophenyl)-1H-indol-2-yl)-1H-pyrazolo[3,4-c]pyridine], for which the EC50 in assay [1] stood at 1030 nM; in assay [2] it was 92 nM; with IL-6 (THP-1 cells) it was 3090 nM; in the assay with SW480 colon cancer cells, 3950 nM.

`Fc1cccc(-c2cccc3[nH]c(-c4n[nH]c5cnc(-c6ccccn6)cc45)cc23)c1` [Compound 28, 3-(4-(3-Fluorophenyl)-1H-indol-2-yl)-5-(pyridin-2-yl)-1H-pyrazolo[3,4-c]pyridine]: the EC50 in assay [1] was found to be 2240 nM; in assay [2], 1180 nM; in the assay with IL-6 (THP-1 cells), 3600 nM; in the assay with SW480 colon cancer cells, 3530 nM.

Consider `CC(C)(C)C(=O)Nc1cncc(-c2cc3c(-c4cc5c(-c6ccc(F)cc6)cccc5[nH]4)n[nH]c3cn2)c1` [Compound 36, N-(5-(3-(4-(4-Fluorophenyl)-1H-indol-2-yl)-1H-pyrazolo[3,4-c]pyridin-5-yl)pyridin-3-yl)pivalamide], for which the EC50 in assay [1] is 872 nM; in assay [2], 1010 nM; with IL-6 (THP-1 cells), 1630 nM; in the assay with SW480 colon cancer cells, 5960 nM.

For the molecule `Fc1ccccc1-c1cccc2[nH]c(-c3n[nH]c4cnc(-c5cccnc5)cc34)cc12` [Compound 60, 3-(4-(2-Fluorophenyl)-1H-indol-2-yl)-5-(pyridin-3-yl)-1H-pyrazolo[3,4-c]pyridine], the EC50 was found to be 740 nM in assay [1], 90 nM in assay [2], 2570 nM in the assay on IL-6 (THP-1 cells) and 909 nM in the assay with SW480 colon cancer cells.

On to `CC(C)Nc1cncc(-c2cc3c(-c4cc5c(-c6ccccc6F)cccc5[nH]4)n[nH]c3cn2)c1` [Compound 68, 5-(3-(4-(2-Fluorophenyl)-1H-indol-2-yl)-1H-pyrazolo[3,4-c]pyridin-5-yl)-N-isopropylpyridin-3-amine], for which the EC50 amounted to 494 nM in assay [1], 215 nM in assay [2], 3100 nM with IL-6 (THP-1 cells) and 1610 nM in the assay on SW480 colon cancer cells.

In the case of `CC(C)(C)CC(=O)Nc1cncc(-c2cc3c(-c4cc5c(-c6ccccc6F)cccc5[nH]4)n[nH]c3cn2)c1` [Compound 72, N-(5-(3-(4-(2-Fluorophenyl)-1H-indol-2-yl)-1H-pyrazolo[3,4-c]pyridin-5-yl)pyridin-3-yl)-3,3-dimethylbutanamide], the EC50 came out at 1700 nM in assay [1], 701 nM in assay [2], 3210 nM in the assay on IL-6 (THP-1 cells) and 4430 nM in the assay on SW480 colon cancer cells.

The record behind these values is patent publication US10166218B2, “3-(1H-indol-2-yl)-1H-pyrazolo[3,4-C]pyridines and therapeutic uses thereof” (Samumed, LLC, priority 2015, dated 2019).
